Data from patent US20220193253A1, “SLOW-RELEASE CYTOKINE CONJUGATES” (ProLynx LLC, priority 2019, published 2022).
“Also recorded” adds a separate entry of the source.

Experiments:
[1] = tested on: Treg cells over Teff and NK cells; conditions: cited from earlier work
[2] = tested on: cell proliferation; conditions: cited from earlier work
[3] = Pharmacokinetics of [aminopropyl]-IL-15 released from microsphere-IL-15; assay type: in vivo, C57BL/6J mice
Protocol: The microsphere-IL-15 slurry of Example 10 (275 nmol protein/mL) was diluted in 25 mM Na citrate buffer pH 5.9 containing 500 mM NaCl, 0.05% tween-20 and 1.25% (w/v) hyaluronic acid. For studies that required various doses of microsphere-IL15, serial dilutions were used obtain the desired microsphere-IL-15 concentration. In all cases, aseptic conditions were used to handle and prepare the microsphere conjugate. Syringes with fixed needles (27G) were backfilled with the conjugate (100 μL). The contents of the syringes were administered either s.c. or i.p. to normal, male C57BL/6J mice. Blood samples were drawn at −24, 4, 8, 24, 48, 96, 168 and 240 hours from alternating groups consisting of 3 mice each. HALT protease inhibitor cocktail (ThermoFisher Scientific) was added to all plasma samples prior to being frozen at −80° C. until analysis.
ELISAs for hIL-15 were performed according to the manufacturer's instructions (R&D Systems, hIL-15 Quantikine, Catalog #D1500) to determine the rhIL-15 plasma. Plasma samples were thawed on ice prior to dilution in the standard diluent provided by the manufacturer. The 4, 8, hour samples were diluted 50-fold, the 24 hour samples was diluted twenty-five fold, and the pre-bleed, 48, 96, 168 and 240 hour samples were diluted ten-fold. hIL-15 concentrations were plot as a function of time and fit using GraphPad Prism software.
Pharmacokinetics of [aminopropyl]-IL-15 released from the microsphere conjugate were measured in normal C57BL/6J mice. Mice were dosed with 2.4 nmol conjugated protein (200 μL injection). […] After approximately 120 hours, the observed concentration quickly decreases (FIG. 11). A one phase decay model fit of data through 120 results in a half-life of at least 200 hours. […] A second injection of MS-IL-15 (50 μg) increases the measured plasma IL-15 at 248 h to a similar concentration of the initial dose.

[4] = tested on: CD44hiCD8+ T cells and NK cells in PBMCs; assay: Pharmacodynamics of [aminopropyl]-IL-15 released from microsphere-IL-15; assay type: in vivo, C57BL/6J mice; conditions: for expansion of CD44hiCD8+ T cells / expansion of NK cells: single dose 2.5 μg; for expansion of NK cells in PBMCs: single s.c. injection 12.5, 25 or 50 μg
Protocol: For flow cytometry analysis, PMBCs were prepared and surface staining was performed to quantitate NK1.1, CD3, CD8, and CD44 expressing cells. Commercial FITC-, PE- or allophycocyanin-conjugated antibodies were used. Sample data were collected on a FACScan flow cytometer (BD Biosciences) and analyzed using FlowJo cytometry analysis software (TreeStar, Ashland, Oreg.).
Pharmacodynamics of [aminopropyl]-IL-15 released from the microsphere-IL-15 of Example 10 were measured in normal, male C57BL/6J mice (n=3/group) (FIG. 14). Mice were dosed with microsphere-IL-15 (2.5, 12.5, 25 or 50 μg conjugated protein) prepared in Example 10. PMBCs were prepared and surface stained for flow cytometry analysis of NK1.1, CD3, CD8, and CD44 expressing cells. Commercial FITC-, PE- or allophycocyanin-conjugated antibodies were used. Sample data were collected on a FACScan flow cytometer (BD Biosciences) and analyzed using FlowJo cytometry analysis software (TreeStar, Ashland, Oreg.).

[5] = tested on: T-cells in the spleen and islets; assay: Pharmacodynamics of IL2 and IL2[N88R,C125S] in NOD mice (flow cytometry of spleen and islets); assay type: in vivo; conditions: daily injections 25,000 units for five days
Protocol: Mice were sacrificed 2 hours after the last injection and the spleen and pancreas were harvested for flow cytometry analysis to measure changes in total number of T-cells and their differentiation in the spleen and islets.

[6] = tested on: Foxp3+CD4+ T-cells and CD8+ T-cells; assay: Pharmacodynamics of microsphere-IL-2[N88R,C125S] in NOD mice (flow cytometry); assay type: in vivo
Protocol: Three groups of six NOD mice were used to determine the PK/PD of [aminopropyl]-IL-2[N88R,C125S] released from the microsphere-IL-2[N88R,C125S] conjugate. […] The second group was administered a subcutaneous injection of empty microspheres, in which cyclooctynes were capped with N3(CH2CH2O)7H. The third group was administered a single subcutaneous injection of the microsphere-IL-2[N88R,C125S] of Example 4 (0.5, 1, 5, 10 or 19 mg of protein/kg). Plasma, peripheral blood mononuclear cells (PBMCs) and organ tissues were prepared and analyzed according to the description in figure legends. Flow cytometric analysis of lymphocytes was performed to monitor changes in T-cell populations. The spleen and lymph nodes and islets were isolated and single cell suspensions were prepared. Surface-staining was performed following standard cell surface immunofluorescence staining for flow cytometry. Fixation and intracellular staining followed protocols from the eBioscience Foxp3/Transcription Factor Staining Buffer Set (ThermoFisher Scientific). Antibodies used were against CD3, CD4, CD8, CD25, CD44 CD45, and FoxP3; all were from commercial vendors. Stained single cell suspension were analyzed using a LSRII flow cytometer (BD Biosciences).
The percentage CD8+ cells found in the spleen and PBMCs were approximately 11% and 19% respectively. These percentages increased to approximately 25% and 60% respectively, when treated with the microsphere-IL-2[N88R,C125S]. NOD mice were administered IL2-mutein (QDx5, 25,000 units), a single injection of empty microspheres or microsphere-IL-2[N88R,C125S](18 mg/kg). Mice were sacrificed 2 hours after the last dose on day 5.
To determine an effective dose that would expand the Foxp3^+CD4^+Tcells population without the activation of CD8′ cells, a dose titration study of microsphere-IL-2[N88R,C125S] was performed. Four concentrations of the microsphere-IL-2[N88R,C125S](0.5 mg/kg, 1 mg/kg, 5 mg/kg and 10 mg/kg) were tested and the pharmacodynamics were monitored through PBMCs over two weeks. […] Foxp3^+CD4^+T-cell expansion peaked at four days and returned to baseline levels at day 14 for all doses (FIG. 9 A).

[7] = tested on: CD8+ effector Tmem cells; conditions: continuous infusion over 10 days; cited from earlier work
[8] = 2.5, 12.5, 25 or 50 μg conjugated protein
[9] = single sc injection 12.5, 25 or 50 μg
[10] = single injection 18 mg/kg, day 5

**Q.** For “BAY 50-4798: IL-2 mutein having an arginine replacing asparagine at position 88, SEQ ID No: 2”, which “increase in selectivity for activation of Treg cells over Teff and NK cells” value [1] is on record?
**A.** The value was 3,000 fold.

**Q.** For “IL-15[N72D]: IL-15 mutein with enhanced receptor agonism, SEQ ID No: 15”, which “fold increase in biological activity over native IL-15” value [2] is on record?
**A.** Its value is 4-5 fold.

**Q.** Which “change in average mouse body weight” value ([3]; 2.4 nmol conjugated protein) does the source give for “MS-IL-15: BCN-activated PEG hydrogel microspheres loaded with linker-IL-15 (MeSO2 linker, N-terminal reductive alkylation)” here?
**A.** Its value is “no significant change”.

**Q.** And the “final average mouse body weight” value ([3]; 2.4 nmol conjugated protein, initial 25.1±1.3 g)?
**A.** Its value is 25.1 ± 1.4 g.

**Q.** What about the “change in average body weight” value [4, 8] of the same substance?
**A.** The value was “no significant change”.

**Q.** And the “clinical observation: injection site reaction” value [4, 8]?
**A.** The value was “no injection site reaction”.

**Q.** And the “fold expansion of NK cells at peak” value ([4]; 12.5, 25 or 50 μg)?
**A.** Its value is 2-3 fold.

**Q.** And the “CD44hiCD8+ T cells levels at 28 days” value ([4]; highest dose 50 μg)?
**A.** The value was “two-fold above the control group”.

**Q.** And the “final average body weight” value ([4]; initial 25.1±1.3 g)?
**A.** The value was 25.1 ± 1.4 g.

**Q.** And the “duration of expansion of CD44hiCD8+ T cells” value ([4]; single 50 ug injection)?
**A.** The value was 28 days.

**Q.** What about the “expansion of CD44hiCD8+ T cells” value [4] of the same substance?
**A.** The value was “no observed expansion”.

**Q.** What about the “expansion of NK cells” value [4] of the same substance?
**A.** The value was “not observed”.

**Q.** What about the “expansion of NK cells in PBMCs” value [4] of the same substance?
**A.** Its value is “dose dependent expansion”.

**Q.** And the “expansion of NK cells in PBMCs” value ([4]; listed as microsphere-IL15)?
**A.** Its value is “expands”.

**Q.** And the “CD44hiCD8+ T cells remained elevated above the control group through” value [4, 9]?
**A.** Its value is 21 days.

**Q.** And the “expansion of CD44hiCD8+ T cells in PBMCs” value [4, 9]?
**A.** Its value is “dose dependent expansion”.

**Q.** And the “fold expansion of CD44hiCD8+ T cells at peak” value [4, 9]?
**A.** Its value is “two to four fold”.

**Q.** And the “time of peak CD44hiCD8+ T cell expansion post treatment” value [4, 9]?
**A.** The value was 5 days.

**Q.** What about the “expansion of CD44hiCD8+ T cells in PBMCs” value ([4]; single sc injection 12.5, 25 or 50 μg, listed as microsphere-IL15) of the same substance?
**A.** The value was “expands”.

**Q.** Which “effect on CD4+ and CD8+ effector/memory T-cells in the spleen” value [5] does the source give for “Proleukin: Aldesleukin (recombinant IL-2), used as native IL-2 comparator in NOD mice [reference compound]” here?
**A.** Its value is “increase in both T-cell populations”.

**Q.** And the “effect on the T-cells in the islets compared to PBS vehicle” value [5]?
**A.** The value was “little to no effect”.

**Q.** Which “AUCip compared to AUCsc” value ([3]; 50 μg) does the source give for “[aminopropyl]-IL-15: IL-15 with N-terminal aminopropyl remnant, released from microsphere-IL-15” here?
**A.** Its value is “nearly two-fold higher”.

**Q.** And the AUCip ([3]; released from MS-IL-15 50 μg i.p.)?
**A.** Its AUCip is 0.0252 µM·h.

**Q.** What about the AUCsc ([3]; released from MS-IL-15 50 μg s.c.) of the same substance?
**A.** Its AUCsc is 0.0149 µM·h.

**Q.** Which results are given for “microsphere-IL-2[N88R,C125S]: PEG hydrogel microspheres carrying linker-N-terminal aminopropyl-IL-2[N88R,C125S] (MeSO2 linker, reductive alkylation); releases [aminopropyl]-IL-2[N88R,C125S]”?
**A.** percentage / activation of CD8+ cells, dose titration ([6]; doses 0.5-10 mg/kg, PBMCs): did not increase; also recorded: avoids activation; expansion of Foxp3+CD4+ T-cells in spleen and PBMC [6, 10]: massive expansion; percentage CD8+ cells, PBMCs [6, 10]: 60%; percentage of T-cells that were Foxp3+CD4+ T-cells, PBMC [6, 10]: ~55%; percentage of T-cells that were Foxp3+CD4+ T-cells, spleen [6, 10]: ~70%; expansion of Foxp3+CD4+ T-cells in PBMCs, dose titration ([6]; single injection 0.5, 1, 5, 10 mg/kg, two weeks): dose dependent expansion; also recorded: preferentially expands

**Q.** What does the source list for “rhIL-15: native IL-15, SEQ ID No: 12 [reference compound]”?
**A.** expansion of CD44hiCD8+ T cells [4]: no observed expansion; expansion of NK cells [4]: not observed; expansion of CD8+ effector Tmem cells in the peripheral blood [7]: 100 x
